Data as given in patent publication US10494380B2, “Nitrogen-containing tricyclic derivatives having HIV replication inhibitory activity” (priority 2015, dated 2019).
pEC50, pIC50: −log10 of the molar value. Read-outs that look alike come from different tables or passages of the source.

Assays:
HIV (HTLV-IIIB strain) = experiment: HIV replication inhibition assay (Test Example 1; MT-4 cells, MTT); format: cell-based; conditions: MT-4 cells, MTT; for pEC50: read-out: EC50; for EC90: read-out: EC90
Procedure, shortened: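 MT-4 cells (2.5×10^4/well) were infected with HIV HTLV-IIIB (60 pfu) in the presence of compound and cultured 4 days at 37 °C. Cell viability was read by MTT reduction (OD 560/690 nm). EC50 and EC90 are the concentrations inhibiting virus-induced cytotoxicity by 50% and 90%.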

CYP3A4 = CYP3A4 (Homo sapiens (Human), UniProt P08684); experiment: CYP3A4 (MDZ) MBI test (Test Example 6); conditions: pooled human liver microsomes, midazolam 1-hydroxylation, preincubation 0 or 30 min
CYP3A4, sequence (P08684 whole entry): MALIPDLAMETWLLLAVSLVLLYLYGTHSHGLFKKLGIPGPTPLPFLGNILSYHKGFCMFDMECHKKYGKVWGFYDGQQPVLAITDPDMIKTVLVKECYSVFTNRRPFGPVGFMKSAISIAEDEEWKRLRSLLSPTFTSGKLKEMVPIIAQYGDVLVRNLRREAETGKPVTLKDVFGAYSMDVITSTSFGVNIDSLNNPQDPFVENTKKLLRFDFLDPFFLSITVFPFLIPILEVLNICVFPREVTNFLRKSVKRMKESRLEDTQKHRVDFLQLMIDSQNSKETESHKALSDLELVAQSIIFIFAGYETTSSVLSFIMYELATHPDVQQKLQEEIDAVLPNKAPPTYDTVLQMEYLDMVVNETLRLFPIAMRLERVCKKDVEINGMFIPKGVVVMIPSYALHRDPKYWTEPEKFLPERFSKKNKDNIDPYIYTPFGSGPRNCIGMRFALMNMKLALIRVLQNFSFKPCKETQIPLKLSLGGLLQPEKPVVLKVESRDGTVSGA

[1] = tested on: sheep red blood cells (RBC); experiment: Photohemolysis test (Test Example 13); format: cell-based; conditions: 0.0008 to 0.1 w/v %, 10 J/cm2 UV-irradiation (290-400 nm)
From the text: Aliquots of sheep red blood cells (RBC) suspension prepared with medium to make a 2.5 v/v % concentration are dispensed into microplates. The compound of the present invention was desolved with a vehicle to make target concentrations and then these solutions were immediately added (in concentrations of 0.0008 to 0.1 w/v %) into the microplates. The mixtures on the microplates were exposed to 10 J/cm2 of UV-irradiation (UV-A and UV-B, 290-400 nm) with a GL20SE lamp (SANKYO DENKI) and a FL20S-BLB lamp (Panasonic). After the UV-irradiation, the mixtures were centrifuged. Aliquots of supernatant were transferred to a microplate. Absorbance of the supernatants was measured at 540 nm and 630 nm for judgement of the potential of phototoxicity. In the study, two endpoints were evaluated in biomembrane impairment (% of photohemolysis index; PI) and hyperoxidation of lipid membrane (methemoglobin formation; met-Hb) with the absorbance at 540 nm and 630 nm, respectively. PI and met-Hb were assessed based on the negative criteria (−), PI<10% and changes in absorbance at 630 nm<0.05, respectively. All else was judged as positive (+).

CYP2C9 = CYP2C9 (Homo sapiens (Human), UniProt P11712); experiment: CYP inhibition assay, tolbutamide methyl-hydroxylation (Test Example 4); format: in vitro ADME; conditions: pooled human hepatic microsome, 100 μmol/L tolbutamide, 15 minutes, 37° C.
CYP2C9, sequence (P11712 whole entry): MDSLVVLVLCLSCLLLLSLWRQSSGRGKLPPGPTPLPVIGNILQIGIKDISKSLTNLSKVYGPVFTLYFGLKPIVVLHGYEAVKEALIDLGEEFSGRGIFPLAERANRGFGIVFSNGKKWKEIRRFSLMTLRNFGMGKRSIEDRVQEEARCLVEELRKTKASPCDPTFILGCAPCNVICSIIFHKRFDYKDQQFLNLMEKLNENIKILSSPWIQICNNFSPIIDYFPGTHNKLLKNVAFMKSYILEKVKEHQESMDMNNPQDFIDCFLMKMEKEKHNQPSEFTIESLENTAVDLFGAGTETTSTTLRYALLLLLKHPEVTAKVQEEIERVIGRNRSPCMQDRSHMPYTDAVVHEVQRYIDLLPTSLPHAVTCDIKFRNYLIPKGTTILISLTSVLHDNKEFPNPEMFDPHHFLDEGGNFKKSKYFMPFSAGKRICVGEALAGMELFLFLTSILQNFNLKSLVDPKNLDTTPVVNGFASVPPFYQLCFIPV
Method: Using commercially available pooled human hepatic microsome, and employing, as markers, 7-ethoxyresorufin O-deethylation (CYP1A2), tolbutamide methyl-hydroxylation (CYP2C9), mephenytoin 4′-hydroxylation (CYP2C19), dextromethorphan O-demethylation (CYP2D6), and terfenadine hydroxylation (CYP3A4) as typical substrate metabolism reactions of human main five CYP enzyme forms (CYP1A2, 2C9, 2C19, 2D6, 3A4) an inhibitory degree of each metabolite production amount by a test compound was assessed.
The reaction conditions were as follows: substrate, 0.5 μmol/L ethoxyresorufin (CYP1A2), 100 μmol/L tolbutamide (CYP2C9), 50 μmol/L S-mephenytoin (CYP2C19), 5 μmol/L dextromethorphan (CYP2D6), 1 μmol/L terfenedine (CYP3A4); reaction time, 15 minutes; reaction temperature, 37° C.; enzyme, pooled human hepatic microsome 0.2 mg protein/mL; test drug concentration, 1, 5, 10, 20 μmol/L (four points).
Each five kinds of substrates, human hepatic microsome, and a test drug in 50 mmol/L Hepes buffer as a reaction solution was added to a 96-well plate as the composition ad described above, NADPH, as a coenzyme was added to initiate metabolism reactions as markers and, after the incubation at 37° C. for 15 minutes, a methanol/acetonitrile=1/1 (V/V) solution was added to stop the reaction. After the centrifugation at 3000 rpm for 15 minutes, resorufin (CYP1A2 metabolite) in the supernatant was quantified by a fluorescent multilabel counter and tolbutamide hydroxide (CYP2C9 metabolite), mephenytoin 4′ hydroxide (CYP2C19 metabolite), dextrorphan (CYP2D6 metabolite), and terfenadine alcohol (CYP3A4 metabolite) were quantified by LC/MS/MS.

HIV = format: cell-based; conditions: EC50 in the presence of human serum (25%) versus without human serum, MT-4 cells
Procedure, shortened: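 HIV-infected MT-4 cells (3×10^4/well, infected 1 h at 37° C) are grown 4 days with compound that was first mixed 1 h with human serum or with medium only. Potency shift is the EC50 with serum divided by the EC50 without serum.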

[2] = tested on: T125A mutant virus (HIV-1 NL-432 recombinant molecular clone, IN gene); experiment: HIV replication inhibition assay against integrase 124/125 mutant virus (Test Example 2); format: cell-based
Procedure, shortened: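 EC50 is the compound concentration blocking half of virus-induced cell death, measured by MTT (OD 560 nm, 690 nm reference) after 4 days at 37 °C. Integrase 124/125 mutant NL-432 virus from transfected 293T cells (60 pfu) was added to 2.5×10^4 MT-4 cells with compound.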

[3] = HIV (HTLV-IIIB strain), four days
[4] = T125A mutant virus (HIV-1 NL-432 IN gene), MT-4 cells, MTT, read-out: EC50 against T125A mutant virus
[5] = Human immunodeficiency virus 1, MT4, 96 h, HIV (HTLV-IIIB strain), four days
[6] = Human immunodeficiency virus 1, MT4, read-out: EC50 against T125A mutant virus, T125A mutant virus (HIV-1 NL-432 IN gene), MT-4 cells, MTT

| Compound | pEC50 (HIV (HTLV-IIIB strain); [3]) | EC90 (HIV (HTLV-IIIB strain); [3]) [nM] | CYP3A4 (MDZ) MBI, shifted IC (CYP3A4) | Photohemolysis test, potential of phototoxicity (PI and met-Hb) [1] | pIC50 (CYP2C9) | Potency shift value (HIV) | pEC50 [2, 4] | pEC50 (HIV (HTLV-IIIB strain); [5]) | EC90 (HIV (HTLV-IIIB strain); [5]) [nM] | pEC50 [2, 6] | pEC50 (HIV (HTLV-IIIB strain); Human immunodeficiency virus 1, MT4, 96 h, HIV HTLV-IIIB strain, cultured four days) |
| --- | --- | --- | --- | --- | --- | --- | --- | --- | --- | --- | --- |
| Cc1ccc(-c2c([C@H](OC(C)(C)C)C(=O)O)c(C)c3c4c2cc(C)n4CCN3c2ncc(CCN3CCOCC3)cn2)cc1 [Compound I-309] | 8.66 | 1.5 | (−) (When a shifted IC was 1.0 or less, this was defined as negative) | (−) (negative criteria (−), PI<10% and changes in absorbance at 630 nm<0.05, respectively) | < 4.70 | 13 | 8.33 |  |  |  |  |
| Cc1ccc(-c2c([C@H](OC(C)(C)C)C(=O)O)c(C)c3c4c2cc(C)n4CCN3c2nc3c(s2)CN(C)CC3)cc1 [Compound I-293] |  |  | (−) (When a shifted IC was 1.0 or less, this was defined as negative) | (−) (negative criteria (−), PI<10% and changes in absorbance at 630 nm<0.05, respectively) | < 4.70 | 4.8 |  | 8.51 | 5.5 | 8.03 |  |
| Cc1ccc(-c2c([C@H](OC(C)(C)C)C(=O)O)c(C)c3c4c2cc(C)n4CCN3c2ncc(OCCCN(C)C)cn2)cc1 [Compound I-267] |  |  | (−) (When a shifted IC was 1.0 or less, this was defined as negative) | (−) (negative criteria (−), PI<10% and changes in absorbance at 630 nm<0.05, respectively) | < 4.70 | 4 |  | 7.96 | 18 | 7.59 |  |
| Cc1ccc(-c2c([C@H](OC(C)(C)C)C(=O)O)c(C)c3c4c2cc(C)n4CCN3c2ncc(OCCN(C)C)cn2)cc1 [Compound I-220] | 8.22 | 11 | (−) (When a shifted IC was 1.0 or less, this was defined as negative) | (−) (negative criteria (−), PI<10% and changes in absorbance at 630 nm<0.05, respectively) | < 4.70 | 3.7 | 7.85 |  |  |  |  |
| Cc1ccc(-c2c([C@H](OC(C)(C)C)C(=O)O)c(C)c3c4c2cc(C)n4CCN3c2ncc(CCN3CCCCC3)cn2)cc1 [Compound I-305] | 8.43 | 4.9 | (−) (When a shifted IC was 1.0 or less, this was defined as negative) | (−) (negative criteria (−), PI<10% and changes in absorbance at 630 nm<0.05, respectively) | < 4.70 | 3.6 | 7.92 |  |  |  |  |
| COc1cnc(N2CCn3c(C)cc4c(-c5ccc(Cl)cc5)c([C@H](OC(C)(C)C)C(=O)O)c(C)c2c43)nc1 [Compound I-156] |  |  | (−) (When a shifted IC was 1.0 or less, this was defined as negative) | (−) (negative criteria (−), PI<10% and changes in absorbance at 630 nm<0.05, respectively) | < 4.70 | 12 |  | 9.07 | 1.2 | 8.44 |  |
| Cc1ccc(-c2c(C(OC(C)(C)C)C(=O)O)c(C)c3c4c2cc(C)n4CCN3CCN(C)C)cc1 (stereo not shown) [Compound I-027] | 8.00 | 16 | (−) (When a shifted IC was 1.0 or less, this was defined as negative) | (−) (negative criteria (−), PI<10% and changes in absorbance at 630 nm<0.05, respectively) | < 4.70 | 1.4 | 7.59 |  |  |  |  |
| Cc1ccc(-c2c([C@H](OC(C)(C)C)C(=O)O)c(C)c3c4c2cc(C)n4C(C)CN3CCN(C)C)cc1 (single isomer, unassigned) [Compound I-164] |  |  | (−) (When a shifted IC was 1.0 or less, this was defined as negative) | (−) (negative criteria (−), PI<10% and changes in absorbance at 630 nm<0.05, respectively) | < 4.70 | 2.6 |  |  | 20 | 7.38 | 7.96 |
| Cc1c([C@H](OC(C)(C)C)C(=O)O)c(-c2ccc(Cl)cc2)c2cc(C)n3c2c1N(c1ncc(OCC2COC2)cn1)CC3 [Compound I-258] |  |  | (−) (When a shifted IC was 1.0 or less, this was defined as negative) | (−) (negative criteria (−), PI<10% and changes in absorbance at 630 nm<0.05, respectively) | < 4.70 | 11 |  | 8.68 | 2.9 | 8.31 |  |
| Cc1ccc(-c2c([C@H](OC(C)(C)C)C(=O)O)c(C)c3c4c2cc(C)n4CCN3c2nc3c(s2)CCN(C)C3)cc1 [Compound I-292] |  |  | (−) (When a shifted IC was 1.0 or less, this was defined as negative) | (−) (negative criteria (−), PI<10% and changes in absorbance at 630 nm<0.05, respectively) | < 4.70 | 4.5 |  | 8.60 | 5.1 | 8.20 |  |
| Cc1c([C@H](OC(C)(C)C)C(=O)O)c(-c2ccc(Cl)cc2)c2cc(C)n3c2c1N(S(C)(=O)=O)[C@@H](CC(F)F)C3 [Compound I-041] |  |  | (−) (When a shifted IC was 1.0 or less, this was defined as negative) | (−) (negative criteria (−), PI<10% and changes in absorbance at 630 nm<0.05, respectively) | < 4.70 | 4.1 |  | 8.82 | 2.3 | 7.89 |  |
| [2H]C([2H])([2H])Oc1cnc(N2CCn3c(C)cc4c(-c5ccc(Cl)cc5)c([C@H](OC(C)(C)C)C(=O)O)c(C)c2c43)nc1 [Compound I-260] |  |  | (−) (When a shifted IC was 1.0 or less, this was defined as negative) | (−) (negative criteria (−), PI<10% and changes in absorbance at 630 nm<0.05, respectively) | < 4.70 | 15 |  | 8.96 | 1.5 | 8.44 |  |
| Cc1cnc(N2CCn3c(C)cc4c(-c5ccc(Cl)cc5)c([C@H](OC(C)(C)C)C(=O)O)c(C)c2c43)nc1 [Compound I-190] |  |  | (−) (When a shifted IC was 1.0 or less, this was defined as negative) | (−) (negative criteria (−), PI<10% and changes in absorbance at 630 nm<0.05, respectively) | < 4.70 | 21 |  | 9.08 | 1.3 | 8.68 |  |
